From US20260042762A1 (Kymera Therapeutics, Inc., priority 2018, published 2026)
Counter-ions that a name gives are not always drawn.

Target: T1, MerTK (Homo sapiens, UniProt Q12866)
T1 construct: endogenous in cells; host or cells: Jurkat cells
T1 sequence (Q12866 21-999): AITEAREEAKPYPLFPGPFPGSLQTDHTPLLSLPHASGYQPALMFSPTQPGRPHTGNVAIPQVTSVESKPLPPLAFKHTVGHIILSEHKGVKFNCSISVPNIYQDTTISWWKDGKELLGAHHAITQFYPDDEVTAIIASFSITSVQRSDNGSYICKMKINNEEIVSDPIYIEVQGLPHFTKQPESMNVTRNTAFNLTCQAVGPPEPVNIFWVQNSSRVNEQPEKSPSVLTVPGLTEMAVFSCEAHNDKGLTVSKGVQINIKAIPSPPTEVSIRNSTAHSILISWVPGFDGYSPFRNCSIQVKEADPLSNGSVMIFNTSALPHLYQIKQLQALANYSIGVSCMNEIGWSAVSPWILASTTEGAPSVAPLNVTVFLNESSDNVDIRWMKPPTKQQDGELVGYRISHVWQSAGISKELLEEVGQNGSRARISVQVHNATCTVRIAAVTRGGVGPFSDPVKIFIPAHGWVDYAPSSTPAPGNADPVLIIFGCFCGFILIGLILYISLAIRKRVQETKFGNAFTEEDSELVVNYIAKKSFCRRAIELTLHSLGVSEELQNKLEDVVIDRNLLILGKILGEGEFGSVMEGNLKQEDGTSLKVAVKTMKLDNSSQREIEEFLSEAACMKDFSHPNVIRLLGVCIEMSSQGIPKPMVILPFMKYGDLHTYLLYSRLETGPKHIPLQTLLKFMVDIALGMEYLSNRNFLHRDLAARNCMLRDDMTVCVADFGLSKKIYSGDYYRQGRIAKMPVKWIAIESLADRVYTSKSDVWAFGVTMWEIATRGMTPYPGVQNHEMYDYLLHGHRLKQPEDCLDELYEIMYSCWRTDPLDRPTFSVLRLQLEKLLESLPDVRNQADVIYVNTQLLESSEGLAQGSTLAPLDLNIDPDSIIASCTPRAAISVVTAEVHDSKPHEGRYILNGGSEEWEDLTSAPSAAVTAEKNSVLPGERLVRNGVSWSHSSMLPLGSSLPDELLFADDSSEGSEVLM
Experiment: MerTk degradation in Jurkat cells (Western blot)
Format: cell-based
Conditions: Jurkat, 4 h, 0.001-1 μM, 4 hour-incubation at 37° C., read-out: Jurkat Max % MerTK Degradation
Summary of the method: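 MerTK degradation was read by near-infrared Western blot, normalized to actin, in BCA-quantified lysates of Jurkat cells exposed to 0.001-1 μM compound for 4 h at 37 °C.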

Row | Compound | Dmax [%]
1 | Cc1cc(CNCc2ccc(C(=O)N3CCC(C4CCN(Cc5ccc(-c6cn([C@H]7CC[C@H](O)CC7)c7nc(NCCC(F)(F)F)ncc67)cc5)CC4)CC3)cc2)ccc1-c1ccc2nn(CC3CC3)cc2c1 [I-180, trans-4-[5-(4-[[1-(4-[[([4-[2-(Cyclopropylmethyl)indazol-5-yl]-3-methylphenyl]methyl)amino]methyl]benzoyl)-[4,4-bipiperidin]-1-yl]methyl]phenyl)-2-[(3,3,3-trifluoropropyl)amino]pyrrolo[2,3-d]pyrimidin-7-yl]cyclohexan-1-ol hydrochloride] | < 20
2 | Cn1c(=O)n([C@H]2CCC(=O)NC2=O)c2cccc(CCCOCCCN3CCN(Cc4ccc(-c5cn([C@H]6CC[C@H](O)CC6)c6nc(NCCC(F)(F)F)ncc56)cc4)CC3)c21 [I-138, 3-[3-methyl-2-oxo-4-[3-(3-[4-[(4-[7-[trans-4-hydroxycyclohexy1]-2-[(3,3,3-trifluoropropyl)amino]pyrrolo[2,3-d]pyrimidin-5-yl]phenyl)methyl]piperazin-1-yl]propoxy)propyl]-1,3-benzodiazol-1-yl]piperidine-2,6-dione] | > 50
3 | CN(C)c1cccc2c(S(=O)(=O)Nc3cccc(-c4cnc(NCCOCCOCCN5CCN(Cc6ccc(-c7cn([C@H]8CC[C@H](O)CC8)c8nc(NCCC(F)(F)F)ncc78)cc6)CC5)nc4N4CCC(c5ccccc5)C4C(=O)O)c3)cccc12 (stereo partly drawn) [I-168, 1-(5-[3-[5-(Dimethylamino)naphthalene-1-sulfonamido]phenyl]-2-([2-[2-(2-[4-[(4-[7-[trans-4-hydroxycyclohexyl]-2-[(3,3,3-trifluoropropyl)amino]pyrrolo[2,3-d]pyrimidin-5-yl]phenyl)methyl]piperazin-1-yl]ethoxy)ethoxy]ethyl]amino)pyrimidin-4-yl)-3-phenylpyrrolidine-2-carboxylic acid] | < 20
4 | O=C1CC[C@H](n2c3cccc(CCCOCCOCCN4CCN(Cc5ccc(-c6cn([C@H]7CC[C@H](O)CC7)c7nc(NCCC(F)(F)F)ncc67)cc5)CC4)c3c3cccnc32)C(=O)N1 [I-134, 3-(5-[3-[2-(2-[4-[(4-[7-[trans-4-hydroxycyclohexy1]-2-[(3,3,3-trifluoropropyl)amino]pyrrolo[2,3-d]pyrimidin-5-yl]phenyl)methyl]piperazin-1-yl]ethoxy)ethoxy]propyl]pyrido[2,3-b]indol-9-y1)piperidine-2,6-dione] | > 50
5 | C[C@@H](CC(F)(F)F)Nc1ncc2c(-c3ccc(CN4CCN(C5CC(OCCc6ccc7c(c6)n(C)c(=O)n7C6CCC(=O)NC6=O)C5)CC4)cc3)cn([C@H]3CC[C@H](O)CC3)c2n1 (stereo partly drawn) [I-195, 3-[3-methyl-2-oxo-5-[2-(3-[4-[(4-[7-[trans-4-hydroxycyclohexy1]-2-[[(2S)-4,4,4-trifluorobutan-2-yl]amino]pyrrolo[2,3-d]pyrimidin-5-yl]phenyl)methyl]piperazin-1-yl]cyclobutoxy)ethyl]-1,3-benzodiazol-1-yl]piperidine-2,6-dione] | 20 to 50
6 | Cn1c(=O)n(C2CCC(=O)NC2=O)c2ccc(CCOCCN3CCCC(N4CCN(Cc5ccc(-c6cn([C@H]7CC[C@H](O)CC7)c7nc(NCCC(F)(F)F)ncc67)cc5)CC4)C3)cc21 (stereo partly drawn) [I-131, 3-(3-methyl-2-oxo-5-[2-[2-(3-[4-[(4-[7-[trans-4-hydroxycyclohexyl]-2-[(3,3,3-trifluoropropyl)amino]-7H-pyrrolo[2,3-d]pyrimidin-5-yl]phenyl)methyl]piperazin-1-y1]piperidin-1-yl)ethoxy]ethyl]-2,3-dihydro-1H-1,3-benzodiazol-1-y1)piperidine-2,6-dione; formic acid] | > 50
7 | Cn1c(=O)n([C@H]2CCC(=O)NC2=O)c2cccc(CN3CCC(CC4CCN(Cc5ccc(-c6cn([C@H]7CC[C@H](O)CC7)c7nc(NCCC(F)(F)F)ncc67)cc5)CC4)CC3)c21 [I-159, 3-(3-methyl-2-oxo-4-[[4-([1-[(4-[7-[trans-4-hydroxycyclohexy1]-2-[(3,3,3-trifluoropropyl)amino]pyrrolo[2,3-d]pyrimidin-5-y1]phenyl)methyl]piperidin-4-y1]methyl)piperidin-1-yl]methyl]-1,3-benzodiazol-1-yl)piperidine-2,6-dione] | > 50
8 | Cn1c(=O)n(C2CCC(=O)NC2=O)c2ccc(CCOCCN3CCC(N4CCN(Cc5ccc(-c6cn([C@H]7CC[C@H](O)CC7)c7nc(NCCC(F)(F)F)ncc67)cc5)CC4)C3)cc21 (stereo partly drawn) [I-132, 3-(3-methyl-2-oxo-5-[2-[2-(3-[4-[(4-[7-[trans-4-hydroxycyclohexyl]-2-[(3,3,3-trifluoropropyl)amino]-7H-pyrrolo[2,3-d]pyrimidin-5-yl]phenyl)methyl]piperazin-1-yl]pyrrolidin-1-yl)ethoxy]ethyl]-2,3-dihydro-1H-1,3-benzodiazol-1-yl)piperidine-2,6-dione] | > 50
9 | Cn1c(=O)n([C@H]2CCC(=O)NC2=O)c2ccc(CCCOCCCN3CCN(Cc4ccc(-c5cn(C6CCCCC6)c6nc(NCCC(F)(F)F)ncc56)cc4)CC3)cc21 [I-83, 3-[5-[3-(3-[4-[(4-[7-cyclohexyl-2-[(3,3,3-trifluoropropyl)amino]-7H-pyrrolo[2,3-d]pyrimidin-5-yl]phenyl)methyl]piperazin-1-yl]propoxy)propyl]-3-methyl-2-oxo-2,3-dihydro-1H-1,3-benzodiazol-1-yl]piperidine-2,6-dione;] | > 50
10 | Cn1c(=O)n(C2CCC(=O)NC2=O)c2ccc(CN3CCN([C@H]4CCN(Cc5ccc(-c6cn([C@H]7CC[C@H](O)CC7)c7nc(NCCC(F)(F)F)ncc67)cc5)C4)CC3)cc21 (stereo partly drawn) [I-158, 3-[3-methyl-2-oxo-5-([4-[(3R)-1-[(4-[7-[trans-4-hydroxycyclohexy1]-2-[(3,3,3-trifluoropropyl)amino]pyrrolo[2,3-d]pyrimidin-5-y1]phenyl)methyl]pyrrolidin-3-y1]piperazin-1-yl]methyl)-1,3-benzodiazol-1-yl]piperidine-2,6-dione] | > 50
11 | Cn1c(=O)n(C2CCC(=O)NC2=O)c2ccc(CN3CCC(OCCN4CCN(Cc5ccc(-c6cn([C@H]7CC[C@H](O)CC7)c7nc(NCCC(F)(F)F)ncc67)cc5)CC4)C3)cc21 (stereo partly drawn) [I-98, 3-(3-methyl-2-oxo-5-[[3-(2-[4-[(4-[7-[trans-4-hydroxycyclohexy1]-2-[(3,3,3-trifluoropropyl)amino]-7H-pyrrolo[2,3-d]pyrimidin-5-y1]phenyl)methyl]piperazin-1-yl]ethoxy)pyrrolidin-1-y1]methyl]-2,3-dihydro-1H-1,3-benzodiazol-1-yl)piperidine-2,6-dione; formic acid] | > 50
12 | Cn1c(=O)n([C@H]2CCC(=O)NC2=O)c2ccc(C#CCOCCN3CC(N4CCN(Cc5ccc(-c6cn([C@H]7CC[C@H](O)CC7)c7nc(NCCC(F)(F)F)ncc67)cc5)CC4)C3)cc21 [I-92, 3-(3-methyl-2-oxo-5-[3-[2-(3-[4-[(4-[7-[trans-4-hydroxycyclohexy1]-2-[(3,3,3-trifluoropropyl)amino]-7H-pyrrolo[2,3-d]pyrimidin-5-yl]phenyl)methyl]piperazin-1-yl]azetidin-1-yl)ethoxy]prop-1-yn-1-y1]-2,3-dihydro-1H-1,3-benzodiazol-1-y1)piperidine-2,6-dione; formic acid] | > 50
13 | Cn1c(=O)n(C2CCC(=O)NC2=O)c2ccc(CCCN3CCCC(N4CCN(Cc5ccc(-c6cn([C@H]7CC[C@H](O)CC7)c7nc(NCCC(F)(F)F)ncc67)cc5)CC4)C3)cc21 (stereo partly drawn) [I-118, 3-[3-methyl-2-oxo-5-[3-(3-[4-[(4-[7-[trans-4-hydroxycyclohexy1]-2-[(3,3,3-trifluoropropyl)amino]-7H-pyrrolo[2,3-d]pyrimidin-5-yl]phenyl)methyl]piperazin-1-y1]piperidin-1-y1)propyl]-2,3-dihydro-1H-1,3-benzodiazol-1-yl]piperidine-2,6-dione; formic acid] | 20 to 50
14 | Cn1c(=O)n([C@H]2CCC(=O)NC2=O)c2ccc(CCCN3CC(CCN4CCN(Cc5ccc(-c6cn([C@H]7CC[C@H](O)CC7)c7nc(NCCC(F)(F)F)ncc67)cc5)CC4)C3)cc21 [I-112, 3-(3-methyl-2-oxo-5-[3-[3-(2-[4-[(4-[7-[trans-4-hydroxycyclohexy1]-2-[(3,3,3-trifluoropropyl)amino]-7H-pyrrolo[2,3-d]pyrimidin-5-yl]phenyl)methyl]piperazin-1-yl]ethyl)azetidin-1-yl]propyl]-2,3-dihydro-1H-1,3-benzodiazol-1-y1)piperidine-2,6-dione] | < 20
